# Measurements from patent US20260297136A1, “PEPTIDES WITH LIPOLYTIC, ANTI-LIPOGENIC, ANTIFIBROTIC AND ANTI-INFLAMMATORY ACTIVITY” (FUNDACIÓ HOSPITAL UNIVERSITARI VALL D'HEBRON - INSTITUT DE …, priority 2023, published 2026).
# Columns and labels:
# HepG2 cells [1] = assay: Hepatic lipogenic key enzymes in HepG2 cells in the presence of 30 mM fructose (2 h), Example 7; assay type: cell-based, human; details: 40 μg/ml
# Method: FIG. 34. Effects of different peptides and SHBG in reducing hepatic lipogenic key enzymes in the presence of 30 mM fructose. Each bar within each group represents mRNA levels of a key hepatic lipogenic enzyme, from left to right: Acetyl-CoA Carboxylase (ACC), ATP Citrate Lyase (ACLY) and Fatty Acid Synthase (FAS), and a key transcription factor regulating several lipogenic enzymes such as PPARγ (PPARγ).
# (§1) Cell culture reagents were from Life Technologies Inc (Invitrogen SA, Barcelona, Spain). HepG2 hepatoblastoma cells (cat. no. HB-8065; ATCC, LGC Standards SLU, Barcelona, Spain) were maintained in Dulbecco's modified Eagle medium (DMEM) supplemented with 10% fetal bovine serum and antibiotics.
# (§2) • HepG2 cells were cultured for 5 day in the absence or presence of 30 mM fructose. Cells cultured in 30 mM fructose were daily treated with vehicle, Telmisartan, Semaglutide or EDL6D. • HepG2 cells were cultured for 24 h in the absence or presence of GP6 (40 μg/ml), GP10 (40 μg/ml), GP11 (40 μg/ml), GP12 (40 μg/ml), GP13 (40 μg/ml) or SHBG (20 nM). • HepG2 cells were cultured in the absence or presence of 30 mM fructose and treated for 2 h with vehicle or GP4 (40 μg/ml), GP6 (40 μg/ml), GP7 (40 μg/ml), GP8 (40 μg/ml), GP9 (40 μg/ml), GP10 (40 μg/ml), GP11 (40 μg/ml), GP12 (40 μg/ml), GP13 (40 μg/ml) or SHBG (20 nM).
# (§3) Total RNA was extracted from HepG2 and LX-2 cells using TRIzol reagent (Invitrogen SA). Reverse transcription was performed at 42° C. for 50 minutes using […] of total RNA, 200 U of Superscript II, and an oligo-dT primer and reagents provided by Invitrogen. An aliquot of the reverse transcription product was amplified in a […] reaction using SYBRGreen (Invitrogen SA) with appropriate oligonucleotide primer pairs corresponding to human SHBG, ACC, FAS, ACLY, PPARG, and 18S and mouse ACC, FAS, ACLY, PPARG, Col1A1 and 18S. Results were analyzed using the 7000 Sequence Detection System program (Applied Biosystems, Thermo Fisher Scientific, Barcelona, Spain) (Shez-Lopez et al Endocrinology 2017).
# HepG2 cells [2] = assay: Hepatic lipogenesis gene expression (ACC, FAS, ACLY mRNA by RTPCR) in HepG2 cells, Example 2; assay type: cell-based, human; details: 10 μM, 24 h, relative to 18S
# Method: FIG. 5 Human hepatoblastoma cell line HepG2 was treated with vehicle (DMSO) or 10 μM of GP4, GP7, GP8 or GP9 for 24 h. RNA was extracted and mRNA levels of Acetyl-CoA Carboxylase (ACC), Fatty Acid Synthase (FAS) and ATP-Citrate Lyase (ACLY) relative to 18S were measured by RTPCR.
# Cell culture reagents were from Life Technologies Inc (Invitrogen SA, Barcelona, Spain). HepG2 hepatoblastoma cells (cat. no. HB-8065; ATCC, LGC Standards SLU, Barcelona, Spain) were maintained in Dulbecco's modified Eagle medium (DMEM) supplemented with 10% fetal bovine serum and antibiotics. HepG2 cells were treated with vehicle or 10 μM of GP4, GP7, GP8 and GP9 for 24 h. LX-2 human hepatic stellate cells (SCC064) were maintained in DMEM supplemented with 2% fetal bovine serum and antibiotics. For experiments, LX-2 were cultured for 24 h in DMEM 0.2% FBS and treated for 24 h with vehicle or TGFβ1 (20 ng/ml) in the absence or presence of 8 μM of GP4, GP7, GP8 and GP9 for 24 h. At the end of the experiment's cells were harvested for gene expression analysis.
# as §3, with “human” for “human SHBG,”, “Col1A1” for “PPARG,”, “(shown in table 7).” for “and mouse ACC, FAS, ACLY, PPARG, Col1A1 and 18S.”, “(Sex Hormone-Binding Globulin Reduction in Metabolic Disorders May Play a Role in NAFLD Development.Saez-Lopez C, Barbosa-Desongles A, Hernandez C, Dyer R A, Innis S M, Simo R, Selva D M. Endocrinology. 2017 Mar. 1; 158(3):545-559. doi: 10.1210/en.2016-1668).” for “(Shez-Lopez et al Endocrinology 2017).”
# [3] = tested on: obesity and fatty liver disease mouse model; assay: Therapeutic effects in an obesity and fatty liver disease mouse model, Example 6; assay type: in vivo, C57BL6/J male mice; details: Telmisartan 5 mg/kg/day in drinking water, 10 weeks
# Method: C57BL6/J male mice were purchased and kept for quarantine and acclimatization for a period of about 7 days before initiation of every experiment. Mice were housed in clean and sterilized mice cages and maintained in a controlled environment with 22+3° C. temperature, 50+20% humidity, a light/dark cycle of 12 hours each and 15-20 fresh air changes per hour.
# For Obesity and NAFLD induction, the animals were fed ad libitum, either with chow diet (150SP-10, Safe Diets) or 45% high-fat diet (TD.190179, Envigo) plus 30% fructose (F0127, Sigma Aldrich) in drinking water for 20 weeks. The therapeutic effect of a daily subcutaneous injection of GP6 (20 mg/kg/day) in this mouse model was assessed for 10 weeks, starting the treatment on week 10 of the experiment until week 20.
# A group of control mice (n=10) was fed with control diet and regular drinking water and a group of mice (n=30) obesity and fatty liver disease was induced for 10 weeks. At this point, mice were randomly divided in three groups of n=10, the first group was treated with daily subcutaneous injections of vehicle (water), the second group was treated with Telmisartan (5 mg/kg/day) in the drinking water and a subcutaneous injection of vehicle, and the third group with daily subcutaneous injection of GP6 (20 mg/kg/day) during 10 weeks.
# At the end of the experiment mice were sacrificed, serum samples were extracted, tissues were weighted and part was fixed in paraformaldehyde for histology studies and part immediately frozen at −80 C for mRNA and protein expression studies as well as assessment of triglycerides.
# The histology studies, AST and ALT measurements, TG measurements, and the RNA analysis were performed as described in Example 4.
# HepG2 cells [4] = assay: Hepatic lipogenesis gene expression in HepG2 cells (24 h), Example 7; assay type: cell-based, human; details: 40 μg/ml, vs vehicle
# Text: FIG. 32. Effect of GP6 and modified peptides on hepatic lipogenesis in HepG2 cells. Each bar within each group represents mRNA levels of a key hepatic lipogenic enzyme, from left to right: Acetyl-CoA Carboxylase (ACC), ATP Citrate Lyase (ACLY) and Fatty Acid Synthase (FAS), and a key transcription factor regulating several lipogenic enzymes such as PPARγ (PPARγ).
# as §1, §2, §3
Molecule,fructose-induced expression of ACC (HepG2 cells [1]),fructose-induced expression of ACLY (HepG2 cells [1]),fructose-induced expression of FAS (HepG2 cells [1]),fructose-induced expression of PPARγ (HepG2 cells [1]),ATP-Citrate Lyase (ACLY) mRNA levels (HepG2 cells [2]),Acetyl-CoA Carboxylase (ACC) mRNA levels (HepG2 cells [2]),Fatty Acid Synthase (FAS) mRNA levels (HepG2 cells [2]),liver triglyceride (TAG) content [3],liver weight [3],Total body weight versus control mice ([3]; vs control diet mice),serum glucose levels ([3]; vs vehicle),ACC mRNA levels (HepG2 cells [4]),ACLY mRNA levels (HepG2 cells [4]),FAS mRNA levels (HepG2 cells [4]),PPARγ mRNA levels (HepG2 cells [4])
CC[C@@H](C)[C@@H](NC(=O)[C@H](NC(=O)CNC(=O)[C@@H](CCC(=O)O)NC(=O)[C@H]1CCCN1C(=O)[C@@H](CC(=O)O)NC(=O)[C@@H](Cc1c[nH]c2ccccc12)NC(=O)[C@H](N)[C@H](C)O)C(C)C)C(=O)N[C@H](Cc1ccccc1)C(=O)N[C@H](Cc1ccc(O)cc1)C(=O)NCC(=O)N[C@H](CC(=O)O)C(=O)N[C@@H](C(=O)N[C@H](CC(N)=O)C(=O)N1CCC[C@@H]1C(=O)N[C@H](CCCCN)C(=O)N[C@H](CC(=O)O)C(=O)N[C@H](CC(=O)O)C(=O)N[C@H](Cc1c[nH]c2ccccc12)C(=O)N[C@H](Cc1ccccc1)C(=O)O)[C@H](C)O [GP7],able to reduce the expression of ACC and ACLY more effectively than SHBG,able to reduce the expression of ACC and ACLY more effectively than SHBG,had no effect on FAS and PPARγ expression,had no effect on FAS and PPARγ expression,reduced,reduced,increased,,,,,,,,
"CCCc1nc2c(C)cc(-c3nc4ccccc4n3C)cc2n1Cc1ccc(-c2ccccc2C(=O)O)cc1 [Telmisartan, reference compound]",,,,,,,,failed to decrease TAG liver content,did not reduced significantly,significantly increased,did not have any effect,,,,
ATKTSASFEVRTWDPEAVIFY [GP10],able to reduce,able to reduce,able to reduce,able to reduce,,,,,,,,reduced the mRNA levels,reduced the mRNA levels,reduced the mRNA levels,reduced the mRNA levels
TKTASAFEVRTWDPEGVIFY [GP12],able to reduce,able to reduce,able to reduce,able to reduce,,,,,,,,reduced all key lipogenic genes except FAS,reduced all key lipogenic genes except FAS,,reduced all key lipogenic genes except FAS
TKTASAFEVRTWDPEGVIFYGDTNPKDDWF [GP11],able to reduce,able to reduce,able to reduce,able to reduce,,,,,,,,reduced the mRNA levels,reduced the mRNA levels,reduced the mRNA levels,reduced the mRNA levels
TKTSASFEVRTWDPEGVIFYADTNPKDDWF [GP13],able to reduce the expression of ACC and ACLY more effectively than SHBG,able to reduce the expression of ACC and ACLY more effectively than SHBG,had no effect on FAS,increased PPARγ expression,,,,,,,,able to reduce,no ACLY and PPARγ,able to reduce,no ACLY and PPARγ
